Legend:
[1] = system: cell cycle-dependent protein kinase (p21); experiment: Expression of p21 by immunoblotting; format: cell-based, mouse
Method: (§1) The mechanism of compounds enhancing killing effect of chemotherapeutic agents on tumor cells while protecting normal cells: mouse colon cancer cells (MCA-38) and primarily-cultured normal mouse intestinal mucosa cells were cultured in a 96-well plate, respectively. 24 hours later, various concentrations (10, 30 and 90 μM) of compound b was respectively added to the cell culture medium, and incubated for 24 hours. LDH was used to detect the damage of the cells, and the cells were collected and extracted for protein. The expression levels of adenosine triphosphate-binding transporter (ABCG2) and the cell cycle-dependent protein […] (p21) were detected by immunoblotting (performed according to the instructions provided by the manufacturer). […] ABCG2 is a transporter, and can pump anticancer drugs out of the cells. […] The high expression of p21 allows the cells to be in non-dividing quiescent phase, so that cells are not sensitive to chemotherapeutic drugs or injury in other forms. The compounds of the present invention make these proteins expressed differentially in normal tissues and tumor tissues, which is one of the reasons for selectively protecting normal tissues and enhancing the sensitivity of tumors to treatment.

[2] = system: normal mouse intestinal mucosa cells; experiment: Cisplatin damage of normal cells with compound (LDH); format: cell-based; conditions: all tested concentrations except the high concentration, 24 hours
Method: as §1

[3] = system: adenosine triphosphate-binding transporter (ABCG2); experiment: Expression of ABCG2 by immunoblotting; format: cell-based, mouse
Method: as §1

COX-2 = target: T1, COX-2 (Rattus norvegicus, UniProt P35355); experiment: COX-2 activity assay (PGE2 in gastric mucosa, EIA) in LPS-treated rats; format: in vivo; conditions: gavage, LPS 2.5 mg/kg-activated
T1 construct: from tissue; host or cells: rat gastric mucosa (LPS-treated rats, in vivo dosing)
T1 sequence (P35355 18-604): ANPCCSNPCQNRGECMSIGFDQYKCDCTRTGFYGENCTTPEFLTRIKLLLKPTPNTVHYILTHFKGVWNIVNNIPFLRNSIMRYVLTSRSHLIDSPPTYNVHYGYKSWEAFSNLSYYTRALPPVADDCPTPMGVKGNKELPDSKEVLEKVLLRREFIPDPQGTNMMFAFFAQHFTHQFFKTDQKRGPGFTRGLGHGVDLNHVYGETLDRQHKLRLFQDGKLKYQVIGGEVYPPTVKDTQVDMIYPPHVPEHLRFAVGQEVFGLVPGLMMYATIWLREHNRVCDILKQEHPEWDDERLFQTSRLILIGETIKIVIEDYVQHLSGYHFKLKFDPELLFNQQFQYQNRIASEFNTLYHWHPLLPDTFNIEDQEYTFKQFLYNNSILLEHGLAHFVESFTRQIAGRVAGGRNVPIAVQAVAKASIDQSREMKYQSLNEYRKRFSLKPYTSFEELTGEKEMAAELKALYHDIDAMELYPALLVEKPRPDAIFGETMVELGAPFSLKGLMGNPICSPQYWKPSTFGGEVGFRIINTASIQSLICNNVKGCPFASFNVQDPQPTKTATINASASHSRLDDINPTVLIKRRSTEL
Method: (2) COX-2 activity assay: The assay was similar to that of COX-1, except that LPS was injected intraperitoneally to rats at a dose of 2.5 mg/kg to activate COX-2 in this experiment. After administration, the content of PGE2 in gastric mucosa was measured using an enzyme-linked immunosorbent assay (EIA) kit (operated according to the instructions provided by the manufacturer) and converted to COX2 activity.
The percentage inhibition rate against COX-1 (FIG. 1a—gastric mucosa, FIG. 1b—myocardium) and COX-2 (FIG. 1c) and the IC50 values (Table 1a—gastric mucosa; Table 1b—myocardium) of each tested pharmaceutical compound were calculated from the above data.

[4] = system: colon cancer cells (SW480); conditions: SW480 tumors in nude mice
Method: The experiment was carried out using compound a in this example. Under sterile conditions, a suspension of colon cancer cells (SW480) in logarithmic growth phase (cell concentration was adjusted to 1×10^7/mL with physiological saline) was inoculated subcutaneously to 5 to 6 weeks old balb/c female nude mice on the right rear back, and each nude mice was inoculated at an amount of 0.3 ml, i.e. the number of cells contained was 3×10^6 per each mouse. 10 days later, subcutaneous transplanted tumor of 100-250 mm^3 appeared. The nude mice with tumor were randomly divided into several groups, each containing 6 mice: (1) control group; (2) doxorubicin group; (3) doxorubicin+amifostine; (4) doxorubicin+Celecoxib+intermediate II; (5) doxorubicin+intermediate I+intermediate II; (6) doxorubicin+low-dose compound a (6 mg/kg/day); (7) doxorubicin+high-dose compound a (15 mg/kg/day). Firstly, the following compounds were administered to each group of nude mice with tumor according to the following doses: intermediate I and intermediate II (3 mg/kg/day respectively), amifostine (400 mg/kg/day), Celecoxib (6 mg/kg/day). Except that amifostine was subcutaneously injected (30 minutes before irradiation), the other protective agents were administered by gavage. The above drugs were administered every day for 5 weeks continuously. 12 hours after the administration, doxorubicin (2.5 mg/kg) was injected intraperitoneally, and it was administered once every 2 days for 5 weeks. During the dosing period, the body weight of the nude mice was measured every two days with a precision electronic balance. The growth of the tumor and whether or not red and swelling and rupture occur were observed every day after inoculation. After tumor formation, the surface morphology and activity of the transplanted tumor were examined, and the longest diameter (a) and the shortest diameter (b) of the tumor nodules were measured every 3 days with a vernier caliper. […] 21 days after administration of doxorubicin, the tail vein blood of mice was collected to perform leukocyte count and blood biochemical index analysis. The tumor tissue and normal peripheral tissues were taken on the last day of treatment, and the content of the intermediate I therein was measured by HPLC (FIG. 9a). At the same time, paraffin sections were made, the occurrence of apoptosis was detected by terminal labeling (FIG. 9b), and the relative survival percentages of normal tissue and tumor tissue were calculated (the results are summarized in FIG. 9b).

[5] = Metabolic kinetics in mice after gavage (plasma level of intermediate II); format: in vivo
Method: Metabolic kinetics of the compound a in mice: the compound a and the intermediate II were administered to mice respectively by gavage at a dose of 25 mg/kg each time and 12 mg/kg each time (equimolar concentration). Equal volume of blood samples were collected at the time points of 1, 3, 5, 9, 18 and 24 hours, and centrifuged immediately. 100 μL of supernatant (plasma) was got, added with 2-fold volume of acetonitrile immediately to extract the blood samples twice, and centrifuged at high speed (12,000 rpm) for 5 minutes. The level of the intermediate II in the organic phase was determined by HPLC, and the content of the compound fragments was detected by LC-MS. Pharmacokinetics was analyzed by Pharmacokinetics Solutions 2.0 software (Summit Research Services, Montrose, Colo., USA).

[6] = Content of active components in tumor tissue and normal peripheral tissue (HPLC); format: in vivo; conditions: last day of treatment
Method: The experiment was carried out using compound a in this example. Under sterile conditions, a suspension of colon cancer cells (SW480) in logarithmic growth phase (cell concentration was adjusted to 1×10^7/mL with physiological saline) was inoculated subcutaneously to 5 to 6 weeks old balb/c female nude mice on the right rear back, and each nude mice was inoculated at an amount of 0.3 ml, i.e. the number of cells contained was 3×10^6 per each mouse. 10 days later, subcutaneous transplanted tumor of 100-250 mm^3 appeared. […] During the dosing period, the body weight of the nude mice was measured every two days with a precision electronic balance. […] After tumor formation, the surface morphology and activity of the transplanted tumor were examined, and the longest diameter (a) and the shortest diameter (b) of the tumor nodules were measured every 3 days with a vernier caliper. […] The tumor tissue and normal peripheral tissues were taken on the last day of treatment, and the content of the intermediate I therein was measured by HPLC (FIG. 9a). At the same time, paraffin sections were made, the occurrence of apoptosis was detected by terminal labeling (FIG. 9b), and the relative survival percentages of normal tissue and tumor tissue were calculated (the results are summarized in FIG. 9b).

[7] = normal mouse intestinal mucosa cells
[8] = gavage, compound a 25 mg/kg, intermediate II 12 mg/kg (equimolar), intermediate II measured in plasma

In the case of COc1ccc2c(CC(=O)OCCCCCCCCCCc3c(C)c(O)c(OC)c(OC)c3O)c(C)n(C(=O)c3ccc(Cl)cc3)c2c1 [compound b], the “expression of p21 in tumor cells” value ([1]; MCA-38 cells) is reported as “no influence”, the “expression of p21 in normal intestinal mucosa cells” value [1, 7] is reported as “significantly enhance the expression of p21” and the “cisplatin damage of normal intestinal mucosa cells” value [2] is reported as “significantly inhibit cisplatin from damaging normal intestinal mucosa cells”. The “expression of ABCG2 in tumor cells” value ([3]; MCA-38 cells) was “significantly inhibit expression”, the “expression of ABCG2 in normal cells” value [3, 7] was “no influence” and the “inhibition against COX-2” value (COX-2) was “significantly enhanced”.
With COC1=C(OC)C(=O)C(CCCCCCCCCCOC(=O)Cc2c(C)n(C(=O)c3ccc(Cl)cc3)c3cc(OC)ccc23)=C(C)C1=O [compound a] the “effect on tumor / on sensitivity of tumor to doxorubicin” value ([4]; doxorubicin 2.5 mg/kg i.p. every 2 days for 5 weeks, agents daily) was “significantly enhance the sensitivity of tumor cells to chemotherapy”, the “death of animals during treatment” value ([4]; doxorubicin 2.5 mg/kg i.p., 6 mice per group) was “No death occurs” and the “protection of normal tissue and cells from doxorubicin” value ([4]; with doxorubicin) was “effective in inhibiting the killing effect of Doxorubicin on normal leukocytes, cardiomyocytes and peripheral normal tissues around the tumor”. For the same compound, the “content of intermediate II in plasma, versus mice given intermediate II” value ([5]; gavage 25 mg/kg) was “significantly higher”, the “metabolites in plasma” value ([5]; gavage 25 mg/kg) was “significantly reduced” and the AUC0 [5, 8] was 63200 ng·h/mL. For the same compound, the Cmax [5, 8] was 19800 ng/mL, the T1/2 [5, 8] was 7.6 h and the Tmax [5, 8] was 5 h. The “content of active components in tumor tissues versus peripheral normal tissues” value [6] was “evidently higher” and the “inhibition against COX-2” value (COX-2) was “significantly enhanced”.
